Test results reported in patent EP1433789A1, “Pyrrolopyrazines and their use as selective apoptosis inducers” (Aponetics AG, priority 2002, dated 2004).

Columns and labels:
HeLa [1] = test: Hoechst 33342 nuclear staining (Table 3); type: cell-based, human; design: key: 0 relating to no activity; 1 relating to weak activity comprising less than 50% of the cells; score 2 relating to strong activity comprising more than 50% of the cells
Protocol: (§1) This assay is performed in 96 well tissue culture plates. Appropriate number of cells (adherent cells: 3 - 5*10^3, suspension cells: 8 - 10*10^3) are being seeded out in 80 µl complete medium. Adherent cells are incubated for 24 h for proper spreading out before addition of test compounds while suspension cells are immediately treated with test compounds after seeding out. The test compounds are added in 20 µl complete medium containing max 5% DMSO. The final compound concentrations in the assays are 10 µM, 3 µM,1 µM and 0.3 µM, respectively. After 24 h or 48 h incubation at culture conditions, 10 µl medium containing Hoechst 33342 dye (Sigma B-2261) at 2-5 µg/ml are added to each well. The assay plates are then further incubated for 30 minutes and subsequently analyzed with a standard inverted fluorescence microscope. The readout allows the determination of the fraction of apoptotic nuclei as well as other morphological criteria specific for apoptosis as a function of the treatment. The following scores are used: 0 relating to no activity, 1 relating to weak activity comprising less than 50% of the cells and score 2 relating to strong activity comprising more than 50% of the cells.

Jurkat [2] = test: Hoechst 33342 nuclear staining (Table 3); type: cell-based, human; design: key: 0 relating to no activity; 1 relating to weak activity comprising less than 50% of the cells; score 2 relating to strong activity comprising more than 50% of the cells
Protocol: as §1

K562 = test: Hoechst 33342 nuclear staining (Table 3); type: cell-based, human; design: key: 0 relating to no activity; 1 relating to weak activity comprising less than 50% of the cells; score 2 relating to strong activity comprising more than 50% of the cells
Protocol: as §1

KB = test: Hoechst 33342 nuclear staining (Table 3); type: cell-based, human; design: key: 0 relating to no activity; 1 relating to weak activity comprising less than 50% of the cells; score 2 relating to strong activity comprising more than 50% of the cells
Protocol: as §1

HeLa [3] = test: AnnexinV/7-AAD staining; type: cell-based, human; conditions: 10 µM, 24 h treatment
Protocol: (§2) Adherent cells (1 - 2*10^5) are 24 h prior to compound treatment seeded into 24 well tissue culture plates. Suspension cells are pipetted into P-tubes immediately before treatment. Test compounds are added leading to a final concentrations of 10 µM. After 24 h treatment cells are harvested (in case of adherent cells by trypsinization) and transferred to FACS tubes (BD Biosciences). After centrifugation and removal of the supernatant, 100 µl complete medium containing AnnexinV-GST (10 µg) is added, mixed and incubated at 4°C for 30 minutes. Subsequently, the cells are washed once with medium and incubated with 100 µl anti-GST Alexa 488 (Molecular Probes A-11131) in medium diluted 1:500 for 30 minutes at 4°C. Then, cells are washed once and stained with 1 µg/ml 7-aminoactinomycin D (7-AAD) (Molecular Probes A-1310) in 250 µl medium and analyzed on the FACSCalibur™. AnnexinV is measured in FL1 whereas 7-AAD is measured in FL3. In Table 5 the percentage of positively stained cells after treatment with the respective compounds are indicated. The following scores are used: Score 0 relates to less than 10%, score 1 relates to more than 10% but less than 50% and score 2 relates to more than 50% positivity.

Jurkat [4] = test: AnnexinV/7-AAD staining; type: cell-based, human; conditions: 10 µM, 24 h treatment
Protocol: as §2

Ramos [5] = test: AnnexinV/7-AAD staining; type: cell-based, human; conditions: 10 µM, 24 h treatment
Protocol: as §2

A20 [6] = test: AnnexinV/7-AAD staining; type: cell-based, mouse; conditions: A20, 10 µM, 24 h treatment
Protocol: as §2

A20 [7] = test: Hoechst 33342 nuclear staining (Table 3); type: cell-based, mouse; design: key: 0 relating to no activity; 1 relating to weak activity comprising less than 50% of the cells; score 2 relating to strong activity comprising more than 50% of the cells
Protocol: as §1

Ramos [8] = test: Hoechst 33342 nuclear staining (Table 3); type: cell-based, human; design: key: 0 relating to no activity; 1 relating to weak activity comprising less than 50% of the cells; score 2 relating to strong activity comprising more than 50% of the cells; conditions: 24h
Protocol: as §1

Structure (SMILES)	Hoechst 33342 nuclear staining (HeLa [1]; 24h, conc 0.3 (µM))	Hoechst 33342 nuclear staining (HeLa [1]; 24h, conc 1 (µM))	Hoechst 33342 nuclear staining (HeLa [1]; 24h, conc 3 (µM))	Hoechst 33342 nuclear staining (HeLa [1]; 24h, conc 10 (µM))	Hoechst 33342 nuclear staining (HeLa [1]; 48h, conc 0.3 (µM))	Hoechst 33342 nuclear staining (HeLa [1]; 48h, conc 1 (µM))	Hoechst 33342 nuclear staining (HeLa [1]; 48h, conc 3 (µM))	Hoechst 33342 nuclear staining (HeLa [1]; 48h, conc 10 (µM))	Hoechst 33342 nuclear staining (Jurkat [2]; 24h, conc 0.3 (µM))	Hoechst 33342 nuclear staining (Jurkat [2]; 24h, conc 1 (µM))	Hoechst 33342 nuclear staining (Jurkat [2]; 24h, conc 3 (µM))	Hoechst 33342 nuclear staining (Jurkat [2]; 24h, conc 10 (µM))	Hoechst 33342 nuclear staining (Jurkat [2]; 48h, conc 0.3 (µM))	Hoechst 33342 nuclear staining (Jurkat [2]; 48h, conc 1 (µM))	Hoechst 33342 nuclear staining (Jurkat [2]; 48h, conc 3 (µM))	Hoechst 33342 nuclear staining (Jurkat [2]; 48h, conc 10 (µM))	Hoechst 33342 nuclear staining (K562; K562, 24h, conc 0.3 (µM))	Hoechst 33342 nuclear staining (K562; K562, 24h, conc 1 (µM))	Hoechst 33342 nuclear staining (K562; K562, 24h, conc 3 (µM))	Hoechst 33342 nuclear staining (K562; K562, 48h, conc 0.3 (µM))	other results
CC1(C)Cc2ccccc2-c2cc3nc4ccccc4nc3n21 [No. 1, 6,6-Dimethyl-5,6-dihydro-6a,7,12-triaza-dibenzo[a,h]fluorene]	0	0	0	0	0	2 (score 2 relating to strong activity comprising more than 50% of the cells)	2 (score 2 relating to strong activity comprising more than 50% of the cells)	2 (score 2 relating to strong activity comprising more than 50% of the cells)	1 (1 relating to weak activity comprising less than 50% of the cells)	1 (1 relating to weak activity comprising less than 50% of the cells)	2 (score 2 relating to strong activity comprising more than 50% of the cells)	2 (score 2 relating to strong activity comprising more than 50% of the cells)	2 (score 2 relating to strong activity comprising more than 50% of the cells)	2 (score 2 relating to strong activity comprising more than 50% of the cells)	2 (score 2 relating to strong activity comprising more than 50% of the cells)	2 (score 2 relating to strong activity comprising more than 50% of the cells)	0	0	0	0	Hoechst 33342 nuclear staining (K562; K562, 48h, conc 1 (µM)): 1 (1 relating to weak activity comprising less than 50% of the cells); Hoechst 33342 nuclear staining (K562; K562, 48h, conc 3 (µM)): 2 (score 2 relating to strong activity comprising more than 50% of the cells); Hoechst 33342 nuclear staining (K562; K562, 48h, conc 10 (µM)): 2 (score 2 relating to strong activity comprising more than 50% of the cells); Hoechst 33342 nuclear staining (KB; 24h, conc 0.3 (µM)): 0; Hoechst 33342 nuclear staining (KB; 24h, conc 1 (µM)): 0; Hoechst 33342 nuclear staining (KB; 24h, conc 3 (µM)): 0; Hoechst 33342 nuclear staining (KB; 24h, conc 10 (µM)): 0; Hoechst 33342 nuclear staining (KB; 48h, conc 0.3 (µM)): 0; Hoechst 33342 nuclear staining (KB; 48h, conc 1 (µM)): 0; Hoechst 33342 nuclear staining (KB; 48h, conc 3 (µM)): 0; Hoechst 33342 nuclear staining (KB; 48h, conc 10 (µM)): 0; percentage of positively stained cells (AnnexinV/7-AAD staining) (HeLa [3]): 1 (score 1 relates to more than 10% but less than 50%); percentage of positively stained cells (AnnexinV/7-AAD staining) (Jurkat [4]): 0 (Score 0 relates to less than 10%); percentage of positively stained cells (AnnexinV/7-AAD staining) (Ramos [5]): 1 (score 1 relates to more than 10% but less than 50%); percentage of positively stained cells (AnnexinV/7-AAD staining) (A20 [6]): 0 (Score 0 relates to less than 10%)
CC1(C)Cc2ccccc2-c2c(C=O)c3nc4ccccc4nc3n21 [No. 3, 6,6-Dimethyl-5,6-dihydro-6a,7,12-triaza-dibenzo[a,h]fluorene-13-carbaldehyde]	0	0	0	0	0	0	0	1 (1 relating to weak activity comprising less than 50% of the cells)	0	0	0	0	0	0	0	2 (score 2 relating to strong activity comprising more than 50% of the cells)	0	0	0	0	Hoechst 33342 nuclear staining (A20 [7]; A20, 24h, conc 0.3 (µM)): 0; Hoechst 33342 nuclear staining (A20 [7]; A20, 24h, conc 1 (µM)): 0; Hoechst 33342 nuclear staining (A20 [7]; A20, 24h, conc 3 (µM)): 0; Hoechst 33342 nuclear staining (A20 [7]; A20, 24h, conc 10 (µM)): 0; Hoechst 33342 nuclear staining (A20 [7]; A20, 48h, conc 0.3 (µM)): 0; Hoechst 33342 nuclear staining (A20 [7]; A20, 48h, conc 1 (µM)): 0; Hoechst 33342 nuclear staining (A20 [7]; A20, 48h, conc 3 (µM)): 0; Hoechst 33342 nuclear staining (A20 [7]; A20, 48h, conc 10 (µM)): 0; Hoechst 33342 nuclear staining (K562; K562, 24h, conc 10 (µM)): 0; Hoechst 33342 nuclear staining (K562; K562, 48h, conc 1 (µM)): 0; Hoechst 33342 nuclear staining (K562; K562, 48h, conc 3 (µM)): 1 (1 relating to weak activity comprising less than 50% of the cells); Hoechst 33342 nuclear staining (K562; K562, 48h, conc 10 (µM)): 1 (1 relating to weak activity comprising less than 50% of the cells); Hoechst 33342 nuclear staining (Ramos [8]; conc 0.3 (µM)): 0; Hoechst 33342 nuclear staining (Ramos [8]; conc 1 (µM)): 0; Hoechst 33342 nuclear staining (Ramos [8]; conc 3 (µM)): 0; Hoechst 33342 nuclear staining (Ramos [8]; conc 10 (µM)): 0; percentage of positively stained cells (AnnexinV/7-AAD staining) (HeLa [3]): 1 (score 1 relates to more than 10% but less than 50%); percentage of positively stained cells (AnnexinV/7-AAD staining) (Jurkat [4]): 2 (score 2 relates to more than 50% positivity); percentage of positively stained cells (AnnexinV/7-AAD staining) (Ramos [5]): 2 (score 2 relates to more than 50% positivity); percentage of positively stained cells (AnnexinV/7-AAD staining) (A20 [6]): 1 (score 1 relates to more than 10% but less than 50%)
